# Results reported in patent US20240295560A1, “PANCREATIC CANCER DIAGNOSIS ASSISTANCE METHOD AND PHARMACEUTICAL COMPOUND FOR TREATING PANCREATIC CANCER” (TOKYO METROPOLITAN GERIATRIC HOSPITAL AND INSTITUTE OF …, priority 2020, published 2024).
# Assays:
# [1] = tested on: MIA PaCa-2 cells (GM2-positive vs GM2-negative); assay: sensitivity of GM2-expressing cells to anticancer drugs, proliferation rate by ATP assay; type: cell-based; settings: drug at 10 μM or 100 μM, incubated 3 days, ATP assay (FIG. 6)
# Method: In this example, the sensitivity of GM2-expressing cells to anticancer drugs (gemcitabine, fluorouracil [5-FU], and Abraxane) were examined.
# MIA PaCa-2 cells (3.0×10^3 cells/well) were seeded in 96-well plates. After 1 day, each anticancer drug was added thereto at a concentration of 10 μM or 100 μM. The cells were incubated for 3 days, and the proliferation rate of the cells was measured by ATP assay.
# [2] = tested on: GM2 expression in MIA PaCa-2 cells; assay: GM2 expression and cell clusters in three-dimensional culture with AMP-dNM or MAP kinase inhibitor; type: cell-based
# Method: MIA PaCa-2 cells were cultured on ultra-low attachment plates at a concentration of 1.0×10^4 cells/well (24-well plate: Corning) for 7 days. Cell clusters were obtained. Therefore, the number of GM2-positive cells increased in three-dimensional culture. In this example, the effects of AMP-dNM or MAP kinase inhibitor on GM2 expression were examined. Under the same conditions as in Example 5, MIA PaCa-2 cells were three-dimensionally cultured, and the expression of GM2 was measured by adding AMP-dNM (10 μM) which is an inhibitor of glycolipid synthesis, or PD0325901 (1 μM) which is a MAP kinase inhibitor.
# [3] = AMP-dNM 10 μM, three-dimensional culture of MIA PaCa-2 cells (FIG. 8(B))
smiles,measurement,setting,value
Nc1ccn([C@@H]2O[C@H](CO)[C@@H](O)C2(F)F)c(=O)n1 [gemcitabine],proliferation rate of GM2-positive cells compared with GM2-negative cells,[1],effective against GM2-positive cells
"O=c1[nH]cc(F)c(=O)[nH]1 [fluorouracil [5-FU], fluorouracil]",proliferation rate of GM2-positive cells compared with GM2-negative cells,[1],effective against GM2-positive cells
"OC[C@@H]1[C@@H](O)[C@H](O)[C@@H](O)CN1CCCCCOCC12CC3CC(CC(C3)C1)C2 [AMP-dNM, N-(5′-adamantane-1′-yl-methoxy)-pentyl-1-deoxynojirimycin]",GM2 expression,"[2]; AMP-dNM 10 μM, three-dimensional culture of MIA PaCa-2 cells (FIG. 8(A))",decreased
same,microvilli in the cell clusters,[2]; [3],hardly observed
same,vacuoles in the cell clusters,[2]; [3],conspicuously observed
O=C(NOC[C@H](O)CO)c1ccc(F)c(F)c1Nc1ccc(I)cc1F [PD0325901],GM2 expression,"[2]; PD0325901 1 μM, three-dimensional culture of MIA PaCa-2 cells (FIG. 8(C))",decreased
same,size of cell clusters,"[2]; PD0325901 1 μM, three-dimensional culture of MIA PaCa-2 cells (FIG. 8(D))",clearly reduced
